From US20110172193A1, “PRO-DRUGS OF (E)-7-(3-(2-AMINO-1-FLUOROETHYLIDENE)PIPERIDIN-1-YL)-1-CYCLOPROPYL-6-FLUORO-8-METHOXY-4-OXO-1,4-DIHYDROQUINOLINE-3-CARBOXYLIC ACID” (priority 2010, published 2011)
Read-outs that look alike come from different tables or passages of the source.

Key:
[1] = Clarity of test compound solutions at […] (aqueous solubility); details: for solubility at 24 h: 50 mM citrate buffer, pH 4, aqueous buffer, thermodynamic from solid; for Aqueous Solubility pH~7 (visual clarity): […] active-form equivalents, pH 7 (50 mM phosphate), after 24 hours
Protocol: A 50-mg/mL solution of a compound of formula (I) or a compound of formula (II) in H2O was titrated with 0.1 M NaOH until pH reached 5.7-6.1. Any solid that precipitated was filtered. The remaining solutions or phase-separated oil/H2O mixtures were freeze-dried to produce zwitterions as fluffy solids.
The aqueous solubility of Compounds #14, #15 and #16 were determined by a modified procedure. In these cases, the samples were targeted at a pH of 4 and 7 and were measured exclusively using 100 mM phosphate buffers. For both pH's, measured samples were initially prepared at ˜3 mg/ml and ˜10 mg/ml concentrations and for samples that dissolved rapidly, additional compound was added to the solution until saturated solutions were obtained.

[2] = In vitro bioconversion of pro-drug to parent drug in mouse blood, plasma, liver and kidney extract; type: in vitro ADME; details: for Peak Area of pro-drug: 37° C. incubator; for Conversion to the parent compound (summary in words): mouse whole blood, liver/kidney extracts, plasma
Protocol: Compound concentrations were normalized to parent drug content by multiplying by a ratio of the relative molecular weights. Time 0 (minute) samples were prepared by immediately diluting with an equal volume of acetonitrile, vortexing, and transferring the samples to ice. […] Representative compounds of the present invention and the parent compound were analyzed by reversed-phase HPLC using an Agilent 1100 system. […] The solvent flow rate was 1 mL/min, and the column temperature was 40° C. Compound and parent peak identification was by diode array detection, monitored at 300 nm Conversion of the compounds (prodrugs) to parent drug was estimated by peak areas (A300 nm, mAU) of the respective agents. Mouse whole blood and plasma were collected from Swiss Webster mice, and stored at 4° C. until use (within 48 hours). […] For these experiments, fresh whole mouse livers or kidneys were homogenized for approximately 30 seconds (Omni-Tip™ disposable homogenizer tip) in 1 mL sterile saline and immediately stored on ice. Crude extracts (non-centrifuged) were incubated with the test compound or parent (20 μg/mL) and processed as described above.

[3] = In vitro bioconversion of pro-drug to parent drug in human blood and plasma; type: in vitro ADME; details: for Peak Area of pro-drug: 37° C.; for Conversion to the parent compound (summary in words): human whole blood and plasma
Protocol: Compounds #1, #4, #6, #15, and #16, as well as the parent drug [(E)-7-(3-(2-amino-1-fluoroethylidene)piperidin-1-yl)-1-cyclopropyl-6-fluoro-8-methoxy-4-oxo-1,4-dihydroquinoline-3-carboxylic acid] (the compound of formula (M)) were dissolved to 1 mg/mL, and diluted to 20 ng/mL in fresh, chilled (4° C.) human or mouse whole blood or plasma, or kidney and liver extract (prepared from the respective fresh mouse organs as described below). Compound concentrations were normalized to parent drug content by multiplying by a ratio of the relative molecular weights. Time 0 (minute) samples were prepared by immediately diluting with an equal volume of acetonitrile, vortexing, and transferring the samples to ice. For additional time points, samples were placed in an incubator (Tables 4 and 5), or in a heating block (Tables 6-12) at 37° C. for the indicated time, then immediately vortexed with an equal volume of acetonitrile and placed on ice. Samples were centrifuged and further diluted with an equal volume of water to a final concentration of 25% acetonitrile prior to analysis by HPLC; diluted samples were retained in the cooled (4° C.) HPLC sample injection chamber pending injection.
Representative compounds of the present invention and the parent compound were analyzed by reversed-phase HPLC using an Agilent 1100 system. Samples were injected onto a Zorbax SB-C18 column (3.5 μM, 4.6×150 mm) with a guard cartridge, and developed on a gradient of 15% aqueous acetonitrile in 0.1% trifluoroacetic acid to 85% aqueous acetonitrile in 0.1% trifluoroacetic acid over 10 minutes. The solvent flow rate was 1 mL/min, and the column temperature was 40° C. Compound and parent peak identification was by diode array detection, monitored at 300 nm Conversion of the compounds (prodrugs) to parent drug was estimated by peak areas (A300 nm, mAU) of the respective agents.
For studies with Compounds #1, #4 and #6 (with results as listed in Tables 8, 9 and 10), fresh human whole blood and plasma samples were purchased from BioChemed Services, shipped in Styrofoam coolers maintained with frozen cold packs, and used within 48 hours of receipt. For studies with Compounds #15 and #16 (with results as listed in Tables 11 and 12), blood was drawn from volunteers and whole blood samples and isolated plasma prepared and immediately placed on ice. Whole blood and plasma samples were maintained at 4° C. and used within approximately 30 hours.

[4] = test system: Staphylococcus aureus (OC8525), a methicillin-resistant strain (MRSA); test: In vivo efficacy in a mouse systemic infection model; details: for ED50: Staphylococcus aureus, 72 h, Swiss Webster mice infected i.p. with MRSA, 3 day survival, normalized to parent content
Protocol: Female Swiss Webster mice weighing between 20-25 g were infected intraperitoneally with approximately 5×10^5 colony forming units (CFU) Staphylococcus aureus (OC8525), a methicillin-resistant strain (MRSA), in 7% mucin. One hour later, the animals were given the test compound intravenously or orally in a dose volume of 0.2 mL. Each animal test group consisted of eight animals. The test compounds were prepared immediately before dosing in 5% dextrose in water (D5W) and diluted further in D5W for i.v. and p.o. administration. The mice were observed over a three day period and ED50 values were calculated from the resulting % survival curves (see Table 13, below). The measured ED50 values were normalized to the content of (E)-7-(3-(2-amino-1-fluoroethylidene)piperidin-1-yl)-1-cyclopropyl-6-fluoro-8-methoxy-4-oxo-1,4-dihydroquinoline-3-carboxylic acid. For some compounds, in vivo efficacy was determined by testing a group of eight mice at a single dose level only. In these cases, the data presented in Table 13, below are reported as percent survival at the designated dose.

[5] = Aqueous solubility, modified procedure (saturated solutions, RP-HPLC); type: physicochemical; details: thermodynamic from solid, 100 mM phosphate buffer
[6] = homogenized mouse kidney, 0 min
[7] = homogenized mouse kidney, 5 min
[8] = homogenized mouse kidney, 30 min
[9] = homogenized mouse liver, 30 min
[10] = fresh human blood (purchased), 0.0 min
[11] = fresh human plasma (purchased), 0.0 min
[12] = fresh human plasma (purchased), 5.0 min
[13] = fresh human plasma (purchased), 15.0 min
[14] = fresh human plasma (purchased), 30.0 min
[15] = oral dose 1 h later, read-out: ED50 p.o.
[16] = iv, i.v. dose 1 h later, read-out: ED50 i.v.

Structure (SMILES) | solubility at 24 h [1] [µg/mL] | Aqueous Solubility pH~7 (visual clarity) [1] | Peak Area of pro-drug ([2]; fresh mouse plasma, 0 min) [mAU] | Peak Area of pro-drug ([2]; fresh mouse plasma, 5 min) [mAU] | Peak Area of pro-drug ([2]; fresh mouse plasma, 30 min) [mAU] | Peak Area of pro-drug [2, 6] [mAU] | Peak Area of pro-drug [2, 7] [mAU] | Peak Area of pro-drug [2, 8] [mAU] | Peak Area of pro-drug ([2]; homogenized mouse liver, 0 min) [mAU] | Peak Area of pro-drug ([2]; homogenized mouse liver, 5 min) [mAU] | Peak Area of pro-drug [2, 9] [mAU] | Conversion to the parent compound (summary in words) [2] | Peak Area of pro-drug [3, 10] [mAU] | Peak Area of pro-drug [3, 11] [mAU] | Peak Area of pro-drug [3, 12] [mAU] | Peak Area of pro-drug [3, 13] [mAU] | Peak Area of pro-drug [3, 14] [mAU] | Conversion to the parent compound (summary in words) [3] | ED50 [4, 15] [mg/kg] | ED50 [4, 16] [mg/kg] | also measured
COc1c(N2CCC/C(=C(\F)CNC(=O)[C@@H](N)C(C)C)C2)c(F)cc2c(=O)c(C(=O)O)cn(C3CC3)c12.Cl [Compound 1, 7-{3-[2-((2S)-2-Amino-3-methyl-butyrylamino)-1-fluoro-ethylidene]-piperidin-1-yl}-1-cyclopropyl-6-fluoro-8-methoxy-4-oxo-1,4-dihydro-quinoline-3-carboxylic acid hydrochloride] | < 3300 | No | 298 | 296 | 286 | 222 | 152 | 41 | 235 | 171 | 51 | converted to the parent compound | 365 | 401 | 386 | 369 | 371 | converted to the parent compound | 9.9 | 1.3 | Peak Area of pro-drug ([3]; fresh human blood (purchased), 3.0 min): 339 mAU; Peak Area of pro-drug ([3]; fresh human blood (purchased), 5.5 min): 339 mAU; Peak Area of pro-drug ([3]; fresh human blood (purchased), 8.0 min): 328 mAU; Peak Area of pro-drug ([3]; fresh human blood (purchased), 10.5 min): 289 mAU; Peak Area of pro-drug ([3]; fresh human blood (purchased), 15.5 min): 256 mAU
COc1c(N2CCC/C(=C(\F)CNC(=O)[C@H](C)N)C2)c(F)cc2c(=O)c(C(=O)O)cn(C3CC3)c12.Cl [Compound 4, 7-{3-[2-((2S)-2-Amino-propionylamino)-1-fluoro-ethylidene]-piperidin-1-yl}-1-cyclopropyl-6-fluoro-8-methoxy-4-oxo-1,4-dihydro-quinoline-3-carboxylic acid hydrochloride] | > 3300 | No |  |  |  |  |  |  |  |  |  | converted to the parent compound | 401 | 442 | 383 | 339 | 268 | converted to the parent compound | 19.8 | 0.7 | Peak Area of pro-drug ([3]; fresh human blood (purchased), 4.0 min): 205 mAU; Peak Area of pro-drug ([3]; fresh human blood (purchased), 6.5 min): 123 mAU; Peak Area of pro-drug ([3]; fresh human blood (purchased), 9.0 min): 79 mAU; Peak Area of pro-drug ([3]; fresh human blood (purchased), 11.5 min): 84 mAU; Peak Area of pro-drug ([3]; fresh human blood (purchased), 16.5 min): 68 mAU
COc1c(N2CCC/C(=C(\F)CNC(=O)CN)C2)c(F)cc2c(=O)c(C(=O)O)cn(C3CC3)c12.Cl [Compound 6, 7-{3-[2-(2-Amino-acetylamino)-1-fluoro-ethylidene]-piperidin-1-yl}-1-cyclopropyl-6-fluoro-8-methoxy-4-oxo-1,4-dihydro-quinoline-3-carboxylic acid hydrochloride] | < 3300 | No | 363 | 329 | 281 | 219 | 72 | 11 | 254 | 143 | 34 | converted to the parent compound | 369 | 393 | 386 | 399 | 393 | converted to the parent compound | > 17.6 | 0.6 | Peak Area of pro-drug ([3]; fresh human blood (purchased), 3.5 min): 290 mAU; Peak Area of pro-drug ([3]; fresh human blood (purchased), 6.0 min): 188 mAU; Peak Area of pro-drug ([3]; fresh human blood (purchased), 8.5 min): 159 mAU; Peak Area of pro-drug ([3]; fresh human blood (purchased), 11.0 min): 134 mAU; Peak Area of pro-drug ([3]; fresh human blood (purchased), 16.0 min): 95 mAU
COc1c(N2CCC/C(=C(\F)CNC(=O)[C@@H](N)CN(C)C)C2)c(F)cc2c(=O)c(C(=O)O)cn(C3CC3)c12.Cl.Cl [Compound 14, 7-{3-[2-((2S)-2-Amino-3-dimethylamino-propionylamino)-1-fluoro-ethylidene]-piperidin-1-yl}-1-cyclopropyl-6-fluoro-8-methoxy-4-oxo-1,4-dihydro-quinoline-3-carboxylic acid dihydrochloride] |  |  |  |  |  |  |  |  |  |  |  |  |  |  |  |  |  |  |  |  | solubility at 18 h ([5]; pH 4, aqueous buffer, read-out: Aqueous Solubility pH~4): 6890 µg/mL; solubility at 18 h ([5]; pH 7, aqueous buffer, read-out: Aqueous Solubility pH~7): > 3000 µg/mL; % Survival ([4]; i.v., at 2.0 mg/kg/day, mice): 12.5% at 2.0 mg/kg/day
